This is an account of results in patent publication US7919517B2, “Indazole derivatives” (Kyowa Hakko Kirin Co., Ltd., priority 2003, dated 2011).

Molecules are shown by their SMILES. Counter-ions that a name gives are not always drawn.

What all share (assay type): cell-based
In assay [1] the test system is human acute myeloid leukemia cell line MV-4-11. The assay can be described thus: Cytostatic activity on leukemia cell line MV-4-11 (WST-1). To be noted: 72 hours, MV-4-11 cells; for inhibition at 10 µM: Homo sapiens, MV4-11, 10 μmol/L, read-out: cytostatic rate MV-4-11 (%) (10 μmol/L). Here is the method:
(§1) The cytostatic rates of a test compound on human acute myeloid leukemia cell lines MV-4-11 and ML-1, and human chronic myeloid leukemia cell line K562 were determined in the following manner.
(§2) Each cell was cultured using Roswell Park Memorial Institute's Medium (RPMI) 1640 (Gibco, Catalog No. 11875-093) containing 10% fetal bovine serum (Gibco, Catalog No. 10437-028) and 1% penicillin/streptomycin (1:1) (Gibco, Catalog No. 15140-122). Each 80 μL of the MV-4-11 cell having a concentration of 7.5×10^4 cells/mL (or the ML-1 cell or K562 cell having a concentration of 2.5×10^4 cells/mL) was inoculated to wells of a TC MICROWELL 96U plate (Nalge Nunc International, Catalog No. 163320) and was cultured in a 5% carbon dioxide gas incubator at 37° C. for 4 hours. As a blank, only RPMI medium (80 μL) was added to a well. Each 20 μL of a solution of the test compound in dimethyl sulfoxide (DMSO) which was prepared to make the final concentration to 10 μmol/L, was added to the MV-4-11 cell, ML-1 cell and K562 cell, respectively. Each 20 μL of DMSO was added to the control well and the blank well to […]. After adding the test compound, the cells were incubated in a 5% carbon dioxide gas incubator at 37° C. for 72 hours. After adding 20 μL of WST-1 reagent {4-[3-(4-iodophenyl)-2-(4-nitrophenyl)-2H-5-tetrazolio]-1,3-benzene disulfonate sodium salt} (Roche Diagnostics K.K., Catalog No. 1644807) diluted to 50% with RPMI medium, the cells were further incubated at 37° C. for 2 hours. Then, the absorbances at 450 nm (reference wavelength: 690 nm) were determined with a microplate spectrophotometer SPECTRA max 340PC (Molecular Devices Corporation). The relative growth (%) of a well to which the test compound had been added was determined while setting the absorbance of a well to which not the test compound but DMSO alone had been added (control) at 100% and that of a well containing RPMI medium alone at 0%. The cytostatic rate (%) of the test compound was determined by subtracting the calculated relative growth from 100.
(In general: Tetrazolium dyes change colour on reduction, which living cells bring about.)

Assay [2] has as its system human chronic myeloid leukemia cell line K562. The assay can be described thus: Cytostatic activity on leukemia cell line K562 (WST-1). To be noted: 72 hours, K562 cells; for inhibition at 10 µM: Homo sapiens, 10 μmol/L, read-out: cytostatic rate K562 (%) (10 μmol/L). The procedure:
as §1, §2

The subject of assay [3] is human acute myeloid leukemia cell line ML-1. As to the kind of experiment: Cytostatic activity on leukemia cell line ML-1 (WST-1). To be noted: 72 hours, ML-1 cells; for inhibition at 10 µM: Homo sapiens, ML1, 10 μmol/L, read-out: cytostatic rate ML-1 (%) (10 μmol/L). The procedure: as §1, §2
In assay [4] the test system is human colon cancer cell line Colo205. As to the kind of experiment: Cytostatic activity on solid carcinoma cell line Colo205 (WST-1). To be noted: Homo sapiens, COLO 205; 10 μmol/L, 72 hours, Colo205 cells; read-out: cytostatic rate Colo205 (%) (10 μmol/L). Here is the method: as §2
The cytostatic rate of a test compound on the human colon cancer cell line Colo205 was determined in the following manner.
The cell was cultured using Roswell Park Memorial Institute's Medium (RPMI) 1640 (Gibco, Catalog No. 11875-093) containing 10% fetal bovine serum (Gibco, Catalog No. 10437-028) and 1% penicillin/streptomycin (1:1) (Gibco, Catalog No. 15140-122). Each 80 μL of the Colo205 having a concentration of 1.25×10^4 cells/mL was inoculated to wells of a TC MICROWELL 96F plate (Nalge Nunc International, Catalog No. 167008) and was cultured in a 5% carbon dioxide gas incubator at 37° C. for 24 hours. As a blank, only RPMI (80 μL) was added to a well. Each 20 μL of a solution of the test compound in DMSO which was prepared to make the final concentration to 10 μmol/L, was added to the Colo205 cell. Each 20 μL of DMSO was added to the control well and the blank well to […]. After adding the test compound, the cell was incubated in a 5% carbon dioxide gas incubator at 37° C. for 72 hours. The cytostatic rate (%) was then determined in the same way as the leukemia cell lines.

`CN(C)C(=O)c1ccc(/C=C/c2n[nH]c3ccccc23)cc1` [Compound 1, (E)-N,N-Dimethyl-4-[2-(1H-indazol-3-yl)vinyl]benzamide]: the inhibition at 10 µM turned out to be 98% in assay [1], 95% in assay [2] and 93% in assay [3].
Consider `CS(=O)(=O)Nc1cc(/C=C/c2n[nH]c3ccccc23)ccc1OCCN1CCOCC1` [Compound 7, (E)-N-{5-[2-(1H-Indazol-3-yl)vinyl]-2-(2-morpholinoethoxy)phenyl}methanesulfonamide], for which the inhibition at 10 µM in assay [1] was determined as 97%; in assay [2], 98%; in assay [4], 89%; in assay [3], 97%.
In the case of `NC(=O)c1cc(/C=C/c2n[nH]c3ccccc23)ccc1OCCN1CCOCC1` [Compound 8, (E)-5-[2-(1H-Indazol-3-yl)vinyl]-2-(2-morpholinoethoxy)benzamide], the inhibition at 10 µM in assay [1] is 95%; in assay [2], 95%; in assay [3], 84%.
Turning to `O=C(c1ccc(/C=C/c2n[nH]c3ccccc23)cc1)N1CCOCC1` [Compound 9, (E)-1{4-[2-(1H-indazol-3-yl)vinyl]benzoyl}morpholine], the “cytostatic rate MV-4-11 (%) (10 μmol/L)” value in assay [1] was determined as 91%. In assay [2], the “cytostatic rate K562 (%) (10 μmol/L)” value is on record as 98%. Moreover, in assay [3], the “cytostatic rate ML-1 (%) (10 μmol/L)” value stood at 90%.
For the molecule `O=C(NCCN1CCOCC1)c1ccc(/C=C/c2n[nH]c3ccccc23)cc1` [Compound 10, (E)-N-(2-morpholinoethyl)-4-[2-(1H-indazol-3-yl)vinyl]benzamide], the inhibition at 10 µM was 91% in assay [1], 99% in assay [2], 41% in assay [4] and 83% in assay [3].
With `CC(=O)N1CCN(C(=O)c2ccc(/C=C/c3n[nH]c4ccccc34)cc2)CC1` [Compound 13, (E)-4-Acetyl-1-{4-[2-(1H-indazol-3-yl)vinyl]benzoyl}piperazine], the results for the inhibition at 10 µM in assay [1], in assay [2] and in assay [3] were 94%, 99% and 90%, respectively.
On the same counts, the results for `CNC(=O)c1ccc(/C=C/c2n[nH]c3ccccc23)cc1` [Compound 14, (E)-N-Methyl-4-[2-(1H-indazol-3-yl)vinyl]benzamide] are 76%, 98% and 84%.
Turning to `CCN(CC)C(=O)c1ccc(/C=C/c2n[nH]c3ccccc23)cc1` [Compound 15, (E)-N,N-Diethyl-4-[2-(1H-indazol-3-yl)vinyl]benzamide hydrochloride], the inhibition at 10 µM in assay [1] is 91%; in assay [2], 100%; in assay [4], 92%; in assay [3], 94%.
`Cl.O=C(c1ccc(/C=C/c2n[nH]c3ccccc23)cc1)N1CCC2(CC1)OCCO2` [Compound 16, (E)-4-ethylenedioxy-1-{4-[2-(1H-indazol-3-yl)vinyl]benzoyl}piperidine hydrochloride]: the “cytostatic rate MV-4-11 (%) (10 μmol/L)” value in assay [1] turned out to be 89%. Besides, the “cytostatic rate K562 (%) (10 μmol/L)” value in assay [2] is 94%. Also, in assay [3], the “cytostatic rate ML-1 (%) (10 μmol/L)” value came to 97%.
For `O=C(c1ccc(/C=C/c2n[nH]c3ccccc23)cc1)N1CCNCC1` [Compound 18, (E)-1-{4-[2-(1H-indazol-3-yl)vinyl]benzoyl}piperazine], the inhibition at 10 µM in assay [1] is 98%; in assay [2] it was 91%; in assay [4], 85%; in assay [3] it was 76%.
On the same counts, the results for `O=CN1CCN(C(=O)c2ccc(/C=C/c3n[nH]c4ccccc34)cc2)CC1` [Compound 19, (E)-4-{4-[2-(1H-indazol-3-yl)vinyl]benzoyl}piperazine-1-carbaldehyde] are 97%, 78%, 89% and 89%.
Regarding `CS(=O)(=O)Nc1cccc(/C=C/c2n[nH]c3ccccc23)c1` [Compound 27, (E)-N-{3-[2-(1H-indazol-3-yl)vinyl]phenyl}methanesulfonamide], the inhibition at 10 µM in assay [1] came out at 94%; in assay [2] it was 55%; in assay [4], 80%; in assay [3], 77%.
The like results for `CCOC(=O)N1CCN(C(=O)c2ccc(/C=C/c3n[nH]c4ccccc34)cc2)CC1` [Compound 32, (E)-1-{4-[2-(1H-indazol-3-yl)vinyl]benzoyl}-4-ethoxycarbonylpiperazine] were, in that order, 94%, 86%, 85% and 80%.
On to `CC(C)(C)C(=O)N1CCN(C(=O)c2ccc(/C=C/c3n[nH]c4ccccc34)cc2)CC1` [Compound 40, (E)-1-{4-[2-(1H-indazol-3-yl)vinyl]benzoyl}-4-(pivaloyl)piperazine], for which the inhibition at 10 µM came to 98% in assay [1], 96% in assay [2], 88% in assay [4] and 67% in assay [3].
Regarding `O=C(c1ccc(/C=C/c2n[nH]c3ccccc23)cc1)N1CCN(C(=O)N2CCOCC2)CC1` [Compound 41, (E)-1-{4-[2-(1H-indazol-3-yl)vinyl]benzoyl}-4-(morpholinocarbonyl)piperazine], the inhibition at 10 µM worked out at 97% in assay [1], 95% in assay [2], 90% in assay [4] and 83% in assay [3].
In the case of `O=C(c1ccncc1)N1CCN(C(=O)c2ccc(/C=C/c3n[nH]c4ccccc34)cc2)CC1` [Compound 44, (E)-1-{4-[2-(1H-indazol-3-yl)vinyl]benzoyl}-4-(isonicotinoyl)piperazine], the inhibition at 10 µM in assay [1] is 98%; in assay [2] it was 92%; in assay [4] it was 91%; in assay [3], 85%.
On the same counts, the results for `O=C(c1ccccc1)N1CCN(C(=O)c2ccc(/C=C/c3n[nH]c4ccccc34)cc2)CC1` [Compound 46, (E)-1-{4-[2-(1H-indazol-3-yl)vinyl]benzoyl}-4-benzoylpiperazine] are 98%, 93%, 87% and 82%.
For the molecule `CS(=O)(=O)N1CCN(C(=O)c2ccc(/C=C/c3n[nH]c4ccccc34)cc2)CC1` [Compound 47, (E)-1-{4-[2-(1H-indazol-3-yl)vinyl]benzoyl}-4-(methanesulfonyl)piperazine], the inhibition at 10 µM in assay [1] amounted to 97%; in assay [2] it was 88%; in assay [4], 91%; in assay [3], 88%.
`O=C(c1ccc(/C=C/c2n[nH]c3ccccc23)cc1)N1CCC(C(=O)N2CCOCC2)CC1` [Compound 51, (E)-1-{4-[2-(1H-indazol-3-yl)vinyl]benzoyl}-4-(morpholinocarbonyl)piperidine]: the inhibition at 10 µM in assay [1] amounted to 98%; in assay [2] it was 95%; in assay [4] it was 90%; in assay [3], 89%.
For the molecule `O=C(c1ccc(/C=C/c2n[nH]c3ccccc23)cc1)N1CCN(C(=O)C2CC2)CC1` [Compound 55, (E)-4-cyclopropanecarbonyl-1-{4-[2-(1H-indazol-3-yl)vinyl]benzoyl}piperazine], the inhibition at 10 µM in assay [1] was determined as 97%; in assay [2], 81%; in assay [4], 89%; in assay [3], 83%.
